SMILES strings stand for the structures.

This experiment concerns the target cGMP-specific 3',5'-cyclic phosphodiesterase, PDE5 (Sus scrofa). The experiment in a line: Inhibitory activity against cGMP-phosphodiesterase from porcine aorta.

For `Cc1ccc2ncnc(NCc3ccc4c(c3)OCO4)c2c1` [Benzo[1,3]dioxol-5-ylmethyl-(6-methyl-quinazolin-4-yl)-amine], the midpoint of inhibition, the IC50, lay at 100 nM. This lies in the sub-micromolar range. As for `CCOc1ccc2ncnc(NCc3ccc4c(c3)OCO4)c2c1` [Benzo[1,3]dioxol-5-ylmethyl-(6-ethoxy-quinazolin-4-yl)-amine], the figure is 380 nM; as for `NC(=O)c1ccc2ncnc(NCc3ccc4c(c3)OCO4)c2c1` [4-[(Benzo[1,3]dioxol-5-ylmethyl)-amino]-quinazoline-6-carboxylic acid amide], 770 nM; as for `COc1cc2ncnc(NCc3ccc4c(c3)OCO4)c2cc1SC` [Benzo[1,3]dioxol-5-ylmethyl-(7-methoxy-6-methylsulfanyl-quinazolin-4-yl)-amine], 350 nM.

`CN(C)C(=O)c1ccc2ncnc(NCc3ccc4c(c3)OCO4)c2c1` [4-[(Benzo[1,3]dioxol-5-ylmethyl)-amino]-quinazoline-6-carboxylic acid dimethylamide] came in with a half-inhibitory concentration (IC50) of 2300 nM. To `COc1ccc2ncnc(NCc3ccc4c(c3)OCO4)c2c1OC` [Benzo[1,3]dioxol-5-ylmethyl-(5,6-dimethoxy-quinazolin-4-yl)-amine] belongs 730 nM; to `O=c1c2ccc(Cl)cc2ncn1Cc1ccc2c(c1)OCO2` [3-Benzo[1,3]dioxol-5-ylmethyl-7-chloro-3H-quinazolin-4-one], 8700 nM; to `COc1cc(OC)c2ncnc(NCc3ccc4c(c3)OCO4)c2c1` [Benzo[1,3]dioxol-5-ylmethyl-(6,8-dimethoxy-quinazolin-4-yl)-amine], 810 nM. As for `CSc1ccc2ncn(Cc3ccc4c(c3)OCO4)c(=O)c2c1` [3-Benzo[1,3]dioxol-5-ylmethyl-6-methylsulfanyl-3H-quinazolin-4-one], the figure is 2300 nM; as for `COc1ccc2ncnc(NCc3ccc4c(c3)OCO4)c2c1` [Benzo[1,3]dioxol-5-ylmethyl-(6-methoxy-quinazolin-4-yl)-amine], 230 nM; as for `CS(=O)(=O)c1ccc2ncnc(NCc3ccc4c(c3)OCO4)c2c1` [Benzo[1,3]dioxol-5-ylmethyl-(6-methanesulfonyl-quinazolin-4-yl)-amine], 810 nM. As for `O=C(c1ccc2ncnc(NCc3ccc4c(c3)OCO4)c2c1)N1CCOCC1` [{4-[(Benzo[1,3]dioxol-5-ylmethyl)-amino]-quinazolin-6-yl}-morpholin-4-yl-methanone], the figure is 2700 nM. On to `OCc1ccc2ncnc(NCc3ccc4c(c3)OCO4)c2c1` [{4-[(Benzo[1,3]dioxol-5-ylmethyl)-amino]-quinazolin-6-yl}-methanol], for which the half-maximal inhibitory concentration (IC50) stood at 930 nM.

Regarding `CCOC(=O)c1ccc2ncnc(NCc3ccc4c(c3)OCO4)c2c1` [4-[(Benzo[1,3]dioxol-5-ylmethyl)-amino]-quinazoline-6-carboxylic acid ethyl ester], the 50% inhibitory concentration (IC50) amounted to 620 nM.
